What all share (type): functional, cell-based
The test system of test [1] is Melanocortin receptor 4 (Homo sapiens), P32245 [L106P]. The test is described as follows: Agonist activity at human melanocortin-4 receptor L106P mutant expressed in HEK293 cells co-transfected with CRE/beta-galactosidase reporter gene assessed as stimulatory response at 100 uM after 6 hrs.
For test [2], the target named is T1, Melanocortin receptor 4 (Homo sapiens, UniProt P32245). The test is described as follows: Agonist activity at wild type human melanocortin-4 receptor expressed in HEK293 cells co-transfected with CRE/beta-galactosidase reporter gene assessed as stimulatory response at 100 uM after 6 hrs.
Test [3] deals with Melanocortin receptor 4 (Homo sapiens, UniProt P32245, L106P). The test is described as follows: Agonist activity at human melanocortin-4 receptor L106P mutant expressed in HEK293 cells co-transfected with CRE/beta-galactosidase reporter gene assessed as stimulatory response after 6 hrs.
The target of test [4] is Melanocortin receptor 4 (Mus musculus, UniProt P56450). The test is described as follows: Agonist activity at mouse melanocortin-4 receptor expressed in HEK293 cells co-transfected with CRE/beta-galactosidase reporter gene assessed as stimulatory response after 6 hrs.
For test [5], the target named is Melanocortin receptor 4 (Homo sapiens, UniProt P32245, I102S). The test is described as follows: Agonist activity at human melanocortin-4 receptor I102S mutant expressed in HEK293 cells co-transfected with CRE/beta-galactosidase reporter gene assessed as stimulatory response after 6 hrs.
In the next test the target is Melanocortin receptor 5 (Mus musculus, UniProt P41149). The test is described as follows: Agonist activity at mouse melanocortin-5 receptor expressed in HEK293 cells co-transfected with CRE/beta-galactosidase reporter gene assessed as stimulatory response after 6 hrs.
Test [6] deals with Melanocortin receptor 4 (Homo sapiens, UniProt P32245, I69T). The test is described as follows: Agonist activity at human melanocortin-4 receptor I69T mutant expressed in HEK293 cells co-transfected with CRE/beta-galactosidase reporter gene assessed as stimulatory response after 6 hrs.
Test [7] deals with Melanocortin receptor 4 (Homo sapiens, UniProt P32245, C271R). The test is described as follows: Agonist activity at human melanocortin-4 receptor C271R mutant expressed in HEK293 cells co-transfected with CRE/beta-galactosidase reporter gene assessed as stimulatory response after 6 hrs.
In test [8] the target is Melanocortin receptor 4 (Homo sapiens, UniProt P32245, C271Y). The test is described as follows: Agonist activity at human melanocortin-4 receptor C271Y mutant expressed in HEK293 cells co-transfected with CRE/beta-galactosidase reporter gene assessed as stimulatory response after 6 hrs.
Test [9] has as its target Melanocyte-stimulating hormone receptor (Mus musculus, UniProt Q01727). The test is described as follows: Agonist activity at mouse melanocortin-1 receptor expressed in HEK293 cells co-transfected with CRE/beta-galactosidase reporter gene assessed as stimulatory response after 6 hrs.
The target in test [10] is T1, Melanocortin receptor 4. The test is described as follows: Agonist activity at wild type human melanocortin-4 receptor expressed in HEK293 cells co-transfected with CRE/beta-galactosidase reporter gene assessed as stimulatory response after 6 hrs.
The target in test [11] is Melanocortin receptor 4 (Homo sapiens, UniProt P32245, A219V). The test is described as follows: Agonist activity at human melanocortin-4 receptor A219V mutant expressed in HEK293 cells co-transfected with CRE/beta-galactosidase reporter gene assessed as stimulatory response after 6 hrs.
In test [12] the test system is Melanocortin receptor 4 (Homo sapiens), P32245 [L106P]. The test is described as follows: Agonist activity at human melanocortin-4 receptor L106P mutant expressed in HEK293 cells co-transfected with CRE/beta-galactosidase reporter gene assessed as stimulatory response at 10 uM after 6 hrs.

In the case of `CC(=O)N1Cc2ccccc2CC1C(=O)N[C@H](Cc1ccc(I)cc1)C(=O)N1Cc2ccccc2CC1C(=O)N1Cc2ccccc2CC1C(N)=O` (some centres not stated), the Activity (in test [1]; at Melanocortin receptor 4 [2]) was 50% in each case.
For `CC(=O)N[C@@H](Cc1c[nH]cn1)C(=O)N[C@H](Cc1ccc(Cl)cc1)C(=O)N1Cc2ccccc2C[C@H]1C(=O)N[C@H](Cc1ccc([N+](=O)[O-])cc1)C(N)=O`, the EC50 on Melanocortin receptor 4 [3] was 15 nM; at Melanocortin receptor 4 [4], 5.2 nM; at Melanocortin receptor 4 [5] it was 3 nM; on Melanocortin receptor 5, 0.63 nM; on Melanocortin receptor 4 [6], 4.3 nM; at Melanocortin receptor 4 [7] it was 130 nM. Moreover, the EC50 on Melanocortin receptor 4 [8] stood at 82 nM; in test [9], 4 nM; on Melanocortin receptor 4 [10], 0.4 nM; at Melanocortin receptor 4 [11], 2.8 nM.
Regarding `CC(=O)N1Cc2ccccc2CC1C(=O)N[C@H](Cc1ccc(I)cc1)C(=O)N1Cc2ccccc2CC1C(=O)N[C@@H](Cc1ccc(I)cc1)C(N)=O` (some centres not stated), the Activity in test [12] was 70%.
`CC(=O)N[C@@H](CCCNC(=N)N)C(=O)N[C@H](Cc1ccc(Cl)cc1)C(=O)N1Cc2ccccc2C[C@H]1C(=O)N[C@H](Cc1ccc([N+](=O)[O-])cc1)C(N)=O`: the EC50 on Melanocortin receptor 4 [3] was 3.4 nM; on Melanocortin receptor 4 [4], 7.6 nM; on Melanocortin receptor 4 [5], 4.4 nM; on Melanocortin receptor 5 it was 1 nM; on Melanocortin receptor 4 [6], 5.2 nM; on Melanocortin receptor 4 [7], 3390 nM. For the same compound, the EC50 was 470 nM on Melanocortin receptor 4 [8], 22 nM in test [9], 0.21 nM at Melanocortin receptor 4 [10] and 4.2 nM on Melanocortin receptor 4 [11].
Consider `CC(=O)N[C@@H](CCCNC(=N)N)C(=O)N[C@H](Cc1ccc(I)cc1)C(=O)N1Cc2ccccc2C[C@H]1C(=O)N[C@H](Cc1ccc([N+](=O)[O-])cc1)C(N)=O`, for which the EC50 on Melanocortin receptor 4 [3] amounted to 2.6 nM; on Melanocortin receptor 4 [4], 2.7 nM; at Melanocortin receptor 4 [5] it was 2.9 nM; at Melanocortin receptor 5, 1.1 nM; at Melanocortin receptor 4 [6], 4.1 nM; at Melanocortin receptor 4 [8], 19700 nM. Moreover, the EC50 in test [9] was found to be 2.7 nM; on Melanocortin receptor 4 [10], 0.26 nM; at Melanocortin receptor 4 [11], 6.1 nM.
With `CC(=O)N[C@@H](Cc1c[nH]cn1)C(=O)N[C@H](Cc1ccc(I)cc1)C(=O)N1Cc2ccccc2C[C@H]1C(=O)N[C@H](Cc1ccc([N+](=O)[O-])cc1)C(N)=O`, the EC50 came to 10 nM on Melanocortin receptor 4 [3]; 2.4 nM on Melanocortin receptor 4 [4]; 14 nM on Melanocortin receptor 4 [5]; 0.84 nM on Melanocortin receptor 5; 3.8 nM at Melanocortin receptor 4 [6]; 295 nM at Melanocortin receptor 4 [7]. Also, the EC50 on Melanocortin receptor 4 [8] amounted to 190 nM; in test [9], 2.9 nM; on Melanocortin receptor 4 [10] it was 0.24 nM; on Melanocortin receptor 4 [11] it was 4.5 nM.

The record behind these values is ChEMBL document CHEMBL3286334, “Identification of tetrapeptides from a mixture based positional scanning library that can restore nM full agonist function of the L106P, I69T, I102S, A219V, C271Y, and C271R human melanocortin-4 polymorphic receptors (hMC4Rs)” (J Med Chem, 2014).
